Target: BLyS (Homo sapiens, UniProt Q9Y275)
Test: Fluorescence anisotropy determination of BLyS-ligand dissociation constants
Format: binding
Description: Dissociation constants between the synthetic peptides and BLyS (free in solution) were measured by fluorescence anisotropy (FA). In these experiments, the concentration of the fluorescein-labeled peptide is held constant and the BLyS protein concentration was varied. […] Binding reactions containing 50 nM fluorescein-labeled peptide and a varied concentration of BLyS in a volume between 10 and 20 μL per well were performed in 384 well microplates. Reactions were assayed using a Tecan Polarion fluorescence polarization plate reader. Cross-competition studies between peptides were performed using 50 nM fluorescein-labeled peptide and 1-2 μM BLyS in the presence and absence of 100 μM unlabeled peptide. […] Other buffers in which dissociation constants of BLyS Binding polypeptides were […] include: […] […] The KD of several BLyS binding BAML peptides was determined by fluorescence anisotropy, performed as previously described.

BLyS, sequence (Q9Y275 134-285 limits assumed): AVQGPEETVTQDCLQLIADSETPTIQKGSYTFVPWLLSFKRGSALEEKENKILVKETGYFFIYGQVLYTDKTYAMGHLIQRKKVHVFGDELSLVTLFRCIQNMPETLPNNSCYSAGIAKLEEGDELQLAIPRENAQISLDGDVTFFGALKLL

| Substance | improvement in binding affinity for BLyS as compared to 453-01-B07 (compared to 453-01-B07 (SEQ ID NO:31)) | decrease in affinity compared to DX814 (compared to DX814) |
| --- | --- | --- |
| Ac-ANWYDSLTKLWLPDGGK-fitc [DX822] | more than 10 fold |  |
| Ac-ANWYDPLTKLSLPDGGK-fitc [DX818] |  | approximately 10 fold |
